The source of these data is PMC3138877 (Cancer research, 2011).

Data set [1] relates to HepG2 hepatocellular carcinoma cells. Nature of the data set: Cell Titer Blue viability, HepG2. Type of data set: cell-based, human. The conditions noted are these: read-out: IC50 HepG2. (In general: The colour change of resazurin is a common sign of viable cells or microbes.)
Data set [2] concerns HCC78 cells (SLC34A2-ROS fusion). Nature of the data set: Cell Titer Blue viability, HCC78. In kind it is cell-based, human.
Data set [3] relates to H2030 lung cancer cells (KRAS G12C). Nature of the data set: Cell Titer Blue viability, H2030. Type of data set: cell-based, human. Particulars: read-out: IC50 H2030.
The subject of data set [4] is PC-9 lung cancer cells (EGFR exon 19 del). Nature of the data set: Cell Titer Blue viability, PC-9. Type of data set: cell-based, human. The conditions noted are these: read-out: IC50 PC-9.
A short description of data set [5]: Pharmacokinetic study, plasma levels in mice. Type of data set: in vivo. Particulars: for plasma level at 2 hours after dosing: mice, oral; for bioavailability in vivo / half-life in vivo: pharmacokinetic study.
In data set [6] the test system is H3122 lung cancer cells harboring EML4-ALK E13;A20 (variant 1). Nature of the data set: Cell Titer Blue viability, H3122. Type of data set: cell-based, human. Particulars: for fold more potent than PF-1066 in H3122: growth inhibition.
Data set [7] has as its system H2228 lung cancer cells (EML4-ALK E6a/b;A20). Nature of the data set: Cell Titer Blue viability, H2228. Particulars: for pIC50: read-out: IC50 H2228, 72h, Cell titer blue. Type of data set: cell-based, human.
The test system of data set [8] is HCC78 cells (SLC34A2-ROS fusion). Particulars: cited from earlier work.
Another data set concerns the target ALK (Homo sapiens, UniProt Q9UM73). Nature of the data set: Ambit KINOMEscan dose-response profiling, ALK. The conditions noted are these: for pIC50: read-out: IC50 ALK (Ambit assays), Biochemical potency, Kinomescan.
The test system of data set [9] is EML4-ALK E13;A20, EML4-ALK E20;A20, EML4-ALK E6b;A20 and KIF5B-ALK. Nature of the data set: Surrogate kinase assays on four ALK variants in 293 cells. Type of data set: cell-based.
A further data set has as its target ROS1 (Homo sapiens, UniProt P08922). Nature of the data set: Ambit screen, ROS1. Particulars: read-out: IC50 ROS1 in vitro (Ambit screen); racemic forms.
Data set [10] in a line: Blood-brain-barrier penetration in C57BL/6J mice. Type of data set: in vivo. The conditions noted are these: for brain penetration (brain tissue concentration as % of plasma level): C57BL/6J mice, 2 hours after dosing.
Another data set has as its system H3122 xenografts. Nature of the data set: H3122 xenograft study in nude mice. Type of data set: in vivo. The conditions noted are these: for growth of H3122 xenograft tumors vs vehicle: nude mice, oral gavage; for mouse weight: xenograft experiment.
For data set [11], the system named is SUDHL-1 lymphoma cells (NPM-ALK). Nature of the data set: Cell Titer Blue viability, SUDHL-1. Type of data set: cell-based, human. The conditions noted are these: read-out: IC50 SUDHL-1, 72h.
The test system of data set [12] is SY5Y neuroblastoma cells (ALK F1174L). Nature of the data set: Cell Titer Blue viability, SY5Y. Particulars: read-out: IC50 SY5Y, 72h. In kind it is cell-based, human.
A further data set concerns H3122 cells. Nature of the data set: Annexin V / propidium iodide apoptosis assay. The conditions noted are these: 72h, increasing concentrations. Type of data set: cell-based, human.
Data set [13] in a line: 10-day repeated oral toxicity study in SD rats. Particulars: for no significant toxicity (NST) level: 10 days repeated oral administration.
A further data set has as its target EML4-ALK E13;A20 (Homo sapiens, UniProt Q9HC35+Q9UM73). Nature of the data set: Surrogate kinase assay. In kind it is cell-based. Particulars: 2 hours treatment, immunoblot, compared with PF-1066.
A further data set deals with MET (Homo sapiens, UniProt P08581). Nature of the data set: Ambit KINOMEscan dose-response profiling, MET. Particulars: read-out: IC50 MET (Ambit assays), Biochemical potency.
MET, sequence (P08581 25-1390): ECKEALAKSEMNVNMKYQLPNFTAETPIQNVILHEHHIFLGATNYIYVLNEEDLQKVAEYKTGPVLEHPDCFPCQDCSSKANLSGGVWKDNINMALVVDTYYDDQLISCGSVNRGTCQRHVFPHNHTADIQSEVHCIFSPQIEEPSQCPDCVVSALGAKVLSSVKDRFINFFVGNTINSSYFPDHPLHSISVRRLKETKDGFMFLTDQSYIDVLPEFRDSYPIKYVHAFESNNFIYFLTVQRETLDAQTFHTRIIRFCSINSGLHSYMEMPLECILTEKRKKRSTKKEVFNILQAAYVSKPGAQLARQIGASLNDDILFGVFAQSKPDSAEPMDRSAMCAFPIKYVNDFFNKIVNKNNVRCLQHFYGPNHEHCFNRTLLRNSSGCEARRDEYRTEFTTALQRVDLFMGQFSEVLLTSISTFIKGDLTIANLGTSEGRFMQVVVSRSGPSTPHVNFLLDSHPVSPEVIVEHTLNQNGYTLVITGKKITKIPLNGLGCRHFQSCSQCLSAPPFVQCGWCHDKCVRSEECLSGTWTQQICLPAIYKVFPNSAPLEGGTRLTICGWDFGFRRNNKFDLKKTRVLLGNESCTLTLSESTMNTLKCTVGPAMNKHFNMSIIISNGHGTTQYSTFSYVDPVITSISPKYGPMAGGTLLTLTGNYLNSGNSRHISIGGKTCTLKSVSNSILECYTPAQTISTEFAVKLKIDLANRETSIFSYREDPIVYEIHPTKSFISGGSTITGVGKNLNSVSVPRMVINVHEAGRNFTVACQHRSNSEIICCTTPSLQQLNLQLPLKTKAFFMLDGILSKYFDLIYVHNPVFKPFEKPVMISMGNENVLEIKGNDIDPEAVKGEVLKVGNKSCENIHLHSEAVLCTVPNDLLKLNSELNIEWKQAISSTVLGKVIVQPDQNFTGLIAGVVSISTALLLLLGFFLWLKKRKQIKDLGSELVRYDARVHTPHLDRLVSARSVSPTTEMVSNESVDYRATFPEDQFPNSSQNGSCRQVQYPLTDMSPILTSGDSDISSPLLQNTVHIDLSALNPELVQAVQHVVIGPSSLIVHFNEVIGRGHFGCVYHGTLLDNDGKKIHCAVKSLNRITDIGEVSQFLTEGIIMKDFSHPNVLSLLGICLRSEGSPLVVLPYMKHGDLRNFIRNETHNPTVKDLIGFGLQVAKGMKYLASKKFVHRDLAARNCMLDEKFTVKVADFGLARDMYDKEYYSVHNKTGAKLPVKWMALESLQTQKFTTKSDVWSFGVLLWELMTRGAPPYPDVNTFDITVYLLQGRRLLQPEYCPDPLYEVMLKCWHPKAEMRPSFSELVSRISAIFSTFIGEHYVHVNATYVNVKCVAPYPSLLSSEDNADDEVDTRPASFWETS
In data set [14] the test system is MKN-45 gastric carcinoma cells (MET dependent). Nature of the data set: Cell Titer Blue viability, MKN-45. Type of data set: cell-based, human. The conditions noted are these: read-out: IC50 MKN-45, 72h.
Another data set addresses EML4-ALK E13;A20 L1196M (Homo sapiens, UniProt Q9HC35+Q9UM73, L1196M). Nature of the data set: Surrogate kinase assay, L1196M mutant in 293 cells. Type of data set: cell-based. Particulars: 2 hours, at higher concentrations than for wild-type fusion.
In data set [15] the test system is EML4-ALK E13;A20 in H3122 lung cancer cells. Nature of the data set: Endogenous ALK phosphorylation immunoblot in H3122. In kind it is cell-based, human. Particulars: 1 hour treatment, compared to PF-1066. (A western blot detects proteins with antibodies after separation by electrophoresis.)
Data set [16] has as its system Ba/F3 cells expressing EML4-ALK E13;A20 WT. Nature of the data set: Cell Titer Blue viability, Ba/F3 EML4-ALK WT. In kind it is cell-based.
Data set [17] deals with Ba/F3 cells expressing EML4-ALK E13;A20 C1156Y. Nature of the data set: Cell Titer Blue viability, Ba/F3 EML4-ALK C1156Y. Type of data set: cell-based. The conditions noted are these: 72h.
A further data set deals with EML4-ALK E13;A20 C1156Y (Homo sapiens, UniProt Q9HC35+Q9UM73, C1156Y). Nature of the data set: Surrogate kinase assay, C1156Y mutant in 293 cells. In kind it is cell-based. The conditions noted are these: 2 hours, at higher concentrations than for wild-type fusion.
Data set [18] concerns Ba/F3 cells expressing EML4-ALK E13;A20 L1196M. Nature of the data set: Cell Titer Blue viability, Ba/F3 EML4-ALK L1196M. In kind it is cell-based. The conditions noted are these: 72h.
The mark [19] stands for this setting: read-out: IC50 HCC78, 72h, Cell titer blue.
[20] abbreviates: read-out: IC50 H3122, 72h, Cell titer blue.
The mark [21] stands for this setting: 72 hours, Chou-Talalay and Mix-Low methods.

pIC50: −log10 of the molar value. Like-named read-outs stand apart in the source and are kept apart here.

ALK, sequence (Q9UM73 19-1620): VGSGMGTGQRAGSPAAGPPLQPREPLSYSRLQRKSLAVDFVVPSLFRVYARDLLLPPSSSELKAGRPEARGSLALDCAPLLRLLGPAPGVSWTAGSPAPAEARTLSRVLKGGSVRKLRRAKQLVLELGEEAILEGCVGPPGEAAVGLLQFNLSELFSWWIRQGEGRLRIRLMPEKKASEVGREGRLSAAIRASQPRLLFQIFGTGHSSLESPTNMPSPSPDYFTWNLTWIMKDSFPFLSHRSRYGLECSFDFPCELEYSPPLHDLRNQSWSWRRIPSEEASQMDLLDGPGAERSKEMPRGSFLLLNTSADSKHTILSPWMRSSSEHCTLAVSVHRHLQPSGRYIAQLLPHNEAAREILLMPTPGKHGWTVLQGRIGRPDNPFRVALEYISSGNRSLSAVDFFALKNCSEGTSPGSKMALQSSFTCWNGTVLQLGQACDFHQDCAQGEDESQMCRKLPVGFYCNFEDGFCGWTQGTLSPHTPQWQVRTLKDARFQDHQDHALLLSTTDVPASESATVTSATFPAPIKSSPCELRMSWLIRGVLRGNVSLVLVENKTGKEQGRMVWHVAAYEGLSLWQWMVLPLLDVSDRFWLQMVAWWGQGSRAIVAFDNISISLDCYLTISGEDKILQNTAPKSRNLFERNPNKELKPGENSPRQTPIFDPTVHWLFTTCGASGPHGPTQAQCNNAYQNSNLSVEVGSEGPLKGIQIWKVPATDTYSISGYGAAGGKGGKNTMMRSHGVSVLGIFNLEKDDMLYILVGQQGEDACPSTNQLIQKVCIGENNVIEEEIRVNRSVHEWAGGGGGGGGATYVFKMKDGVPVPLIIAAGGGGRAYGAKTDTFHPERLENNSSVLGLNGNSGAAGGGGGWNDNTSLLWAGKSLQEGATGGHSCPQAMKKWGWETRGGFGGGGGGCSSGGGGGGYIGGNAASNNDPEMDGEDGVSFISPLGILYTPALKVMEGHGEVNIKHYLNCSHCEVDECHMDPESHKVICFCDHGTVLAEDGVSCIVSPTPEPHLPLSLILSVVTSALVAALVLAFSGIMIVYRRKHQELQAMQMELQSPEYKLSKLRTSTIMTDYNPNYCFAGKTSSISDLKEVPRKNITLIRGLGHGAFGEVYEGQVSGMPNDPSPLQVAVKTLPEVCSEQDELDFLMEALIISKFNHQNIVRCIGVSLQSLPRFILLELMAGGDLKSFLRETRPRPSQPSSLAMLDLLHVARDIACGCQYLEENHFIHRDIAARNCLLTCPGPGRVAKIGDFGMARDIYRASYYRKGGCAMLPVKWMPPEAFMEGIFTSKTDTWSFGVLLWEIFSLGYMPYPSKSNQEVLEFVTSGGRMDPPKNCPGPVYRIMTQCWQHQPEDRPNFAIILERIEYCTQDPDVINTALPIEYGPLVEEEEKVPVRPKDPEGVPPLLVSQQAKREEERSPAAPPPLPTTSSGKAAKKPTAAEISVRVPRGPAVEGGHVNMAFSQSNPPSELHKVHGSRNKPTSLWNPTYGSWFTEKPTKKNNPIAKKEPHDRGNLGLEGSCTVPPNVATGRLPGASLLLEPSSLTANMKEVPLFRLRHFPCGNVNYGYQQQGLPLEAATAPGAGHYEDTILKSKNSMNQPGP

For `C[C@@H](Oc1cc(-c2cnn(C3CCNCC3)c2)cnc1N)c1c(Cl)ccc(F)c1Cl` [PF-1066, crizotinib, reference compound], the pIC50 in data set [1] (Homo sapiens, HepG2, 72 h) was 4.84; in data set [2] (Homo sapiens, HCC78, 72 h, read-out: IC50 HCC78, 72h, Cell titer blue), 5.85; in data set [2] (setting [19]), 5.87; in [3] (Homo sapiens, NCI-H2030, 72 h), 5.61; in data set [4] (Homo sapiens, 72 h) it was 5.78. The compound also had a concentration at 2 h in data set [5] (athymic nude (nu/nu), mouse, plasma, po, 50 mg/kg) of 10.2 µM.
Take `CO[C@H]1C[C@@H]2CC[C@@H](C)[C@@](O)(O2)C(=O)C(=O)N2CCCC[C@H]2C(=O)O[C@H]([C@H](C)C[C@@H]2CC[C@@H](O)[C@H](OC)C2)CC(=O)[C@H](C)/C=C(\C)[C@@H](O)[C@@H](OC)C(=O)[C@H](C)C[C@H](C)/C=C/C=C/C=C/1C` [Rapamycin, rapamycin, reference compound]: in data set [6] (72 hours), the “proliferation of H3122 cells, rapamycin alone” value is reported as “small but reproducible decrease”. In data set [7] (72 hours), the “proliferation of H2228 cells, rapamycin alone” value is given as “small but reproducible decrease”.
`COc1cc(N2CCC(N3CCN(C)CC3)CC2)ccc1Nc1ncc(Cl)c(Nc2ccccc2S(=O)(=O)C(C)C)n1` [TAE-684, reference compound]: in [6] (Homo sapiens, NCI-H3122, 72 h, read-out: IC50 H3122 cell growth), the pIC50 was 8.30. In addition, the “sensitivity of HCC78 cells” value in data set [8] is “moderate sensitivity”.
In the case of `C[C@@H](Oc1cc(C(=O)Nc2ccc(C(=O)N3CCN(C)CC3)cc2)nnc1N)c1c(Cl)ccc(F)c1Cl` [X-376], the pIC50 in data set [1] (72h, Cell titer blue) is 4.82; on ALK it was 9.21; on ROS1, 7.72; in [2] (setting [19]) it was below 5.52; in data set [3] (72h, Cell titer blue) it was 5.85; in data set [4] (72h, Cell titer blue) it was 5.51. In addition, the pIC50 in data set [11] was 7.49; in data set [6] (setting [20]), 7.11; in data set [12] it was 6.85; in data set [7], 7.24; at MET, 9.16; in data set [14] it was 6.82. In addition, the “fold more potent against ALK compared to PF-1066” value at ALK is “approximately 10 fold”. Besides, the “inhibition of ALK kinase activity of four ALK fusions” value in data set [9] was “dose-dependent inhibition of ALK kinase activity”. Moreover, the “differences in sensitivity among the four ALK variants” value in data set [9] (quantitative examination of immunoblots (data not shown)) was “no major differences in sensitivity”. In addition, the “brain penetration (brain tissue concentration as % of plasma level)” value in data set [10] (50mg/kg) is listed as “less”. Further, in the data set with H3122 xenografts (50mg/kg bid), the “growth of H3122 xenograft tumors vs vehicle” value is recorded as “significantly delayed the growth of tumors”. Further, the mouse weight entry in the data set on H3122 xenografts (50mg/kg bid) is “unaffected”. Also, the “fold more potent than PF-1066 in H3122” value in [6] turned out to be 3 fold. Also, the “apoptosis (Annexin V and propidium iodide)” value in the data set with H3122 cells is “increased apoptosis”. In data set [13] (50 mg/kg), the “increase of the liver enzymes AST and ALT at NST level” value was below 50%. Also, the “no significant toxicity (NST) level” value in [13] came out at 50 mg/kg. Also, the “plasma level at 2 hours after dosing” value in data set [5] (50mg/kg) was 6.27 µM. In data set [5], the bioavailability in vivo result is recorded as “substantial bioavailability”. Also, the half-life in vivo result in data set [5] is “moderate half-lives”. For the same compound, at EML4-ALK E13;A20, the “phospho-ALK in 293 cells transfected with EML4-ALK E13;A20” value is given as “greater reductions in phospho-ALK at lower concentrations of drug”.
In the case of `C[C@@H]1CN(C(=O)c2ccc(NC(=O)c3cc(O[C@H](C)c4c(Cl)ccc(F)c4Cl)c(N)nn3)cc2)C[C@H](C)N1` [X-396], the pIC50 in [1] (72h, Cell titer blue) is 5.02; on ALK, above 9.40; in data set [2] (setting [19]), below 5.52; in data set [3] (72h, Cell titer blue), 6.12; in data set [16] (read-out: IC50 Ba/F3 + EML4-ALK E13;A20 WT, 72h, Cell titer blue), 7.66; in [17] (read-out: IC50 Ba/F3 + EML4-ALK E13;A20 C1156Y, Cell titer blue), 7.32. The pIC50 in [17] (read-out: IC50 Ba/F3 EML4-ALK E13;A20 C1156Y) is at least 7.00; in [4] (72h, Cell titer blue) it was 5.52; in data set [11] it was 8.05; in data set [6] (setting [20]), 7.82; in data set [12], 7.17; in [7], 7.35. In addition, the pIC50 on MET is 9.13; in [18] (read-out: IC50 Ba/F3 + EML4-ALK E13;A20 L1196M, Cell titer blue), 6.97; in [18] (read-out: IC50 Ba/F3 EML4-ALK E13;A20 L1196M), at least 7.00; in [14] it was 6.81. The “fold more potent against ALK compared to PF-1066” value at ALK is on record as “approximately 10 fold”. For the same compound, the “brain penetration (brain tissue concentration as % of plasma level)” value in data set [10] (25mg/kg) was determined as 13%. For the same compound, in [10] (projection from mouse study at a human plasma level of ∼500nM), the “projected concentration in human brain” value is on record as “about 65 nM”. Besides, the “ALK autophosphorylation, L1196M” value at EML4-ALK E13;A20 L1196M is “significantly diminished”. Also, the “endogenous ALK phosphorylation in H3122” value in data set [15] was “inhibited ALK phosphorylation at lower concentrations of drug”. In addition, the “fold more potent than PF-1066 in Ba/F3 EML4-ALK E13;A20 wild-type” value in data set [16] (growth inhibition) is around 10 fold. The “growth of H3122 xenograft tumors vs vehicle” value in the data set on H3122 xenografts (25mg/kg bid) is recorded as “significantly delayed the growth of tumors”. For the same compound, the mouse weight entry in the data set on H3122 xenografts (25mg/kg bid) is “unaffected”. Also, the “cell growth of H3122, combination with rapamycin” value in data set [6] (setting [21]) was “synergistic decrease of cell growth”. In addition, the “fold more potent than PF-1066 in H3122” value in data set [6] is 10 fold. Further, the “increase of the liver enzymes AST and ALT at NST level” value in [13] (80mg/kg) is reported as below 50%. Besides, the “no significant toxicity (NST) level” value in data set [13] is 80 mg/kg. Further, the “plasma level at 2 hours after dosing” value in data set [5] (25mg/kg) worked out at 2.28 µM. The bioavailability in vivo entry in [5] was “substantial bioavailability”. For the same compound, the half-life in vivo result in data set [5] is reported as “moderate half-lives”. Besides, the “cell growth of H2228, combination with rapamycin” value in [7] (setting [21]) is listed as “synergistic decrease of cell growth”. Also, on EML4-ALK E13;A20, the “phospho-ALK in 293 cells transfected with EML4-ALK E13;A20” value was “greater reductions in phospho-ALK at lower concentrations of drug”. The “ALK autophosphorylation, C1156Y” value at EML4-ALK E13;A20 C1156Y is listed as “significantly diminished”.
